# The source made the active and inactive calls.
# Columns and labels:
# HeLa = assay: viability loss in HeLa cells – cell-based, 24 h, cherry-picked samples, cytotoxicity control, dose response (AID 504726); type: functional; conditions: Homo sapiens;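 note: potency for cytotoxicity as loss of luminescence signal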
# [1] = target: Melanin-concentrating hormone receptor 1 (Homo sapiens, UniProt Q99705); assay: Fluorescence-based counterscreen for antagonists of the G-protein coupled receptor 7 (GPR7): cell-based high throughput dose response assay to identify antagonists of the melanin-concentrating hormone receptor 1 (MCHR1).; type: functional
# [2] = target: T1, Neuropeptides B/W receptor type 1 (Homo sapiens, UniProt P48145); assay: Fluorescence-based dose response cell-based high throughput screening assay to identify antagonists of the G-protein coupled receptor 7 (GPR7). [Related pubchem assays: 1952 (Screening assay (GPR7 antagonists).), 1880 (Summary AID.)]; type: functional
# T1 sequence (P48145 whole entry): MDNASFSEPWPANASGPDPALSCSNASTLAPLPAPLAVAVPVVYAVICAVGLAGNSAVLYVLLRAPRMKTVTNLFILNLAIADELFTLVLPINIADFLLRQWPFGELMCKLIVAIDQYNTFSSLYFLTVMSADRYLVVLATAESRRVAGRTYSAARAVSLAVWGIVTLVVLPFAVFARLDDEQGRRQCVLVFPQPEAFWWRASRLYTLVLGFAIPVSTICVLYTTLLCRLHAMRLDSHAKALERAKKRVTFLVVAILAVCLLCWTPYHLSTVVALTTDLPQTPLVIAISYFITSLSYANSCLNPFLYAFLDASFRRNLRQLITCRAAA
# Cytochrome P450 2D6 = Cytochrome P450 2D6 (Homo sapiens, UniProt P10635); assay: qHTS Assay for Inhibitors and Substrates of Cytochrome P450 2D6. [Related pubchem assays: 410 ]; type: ADME; conditions: read-out: Potency
# Chain of Cytochrome P450 2D6 (P10635 whole entry): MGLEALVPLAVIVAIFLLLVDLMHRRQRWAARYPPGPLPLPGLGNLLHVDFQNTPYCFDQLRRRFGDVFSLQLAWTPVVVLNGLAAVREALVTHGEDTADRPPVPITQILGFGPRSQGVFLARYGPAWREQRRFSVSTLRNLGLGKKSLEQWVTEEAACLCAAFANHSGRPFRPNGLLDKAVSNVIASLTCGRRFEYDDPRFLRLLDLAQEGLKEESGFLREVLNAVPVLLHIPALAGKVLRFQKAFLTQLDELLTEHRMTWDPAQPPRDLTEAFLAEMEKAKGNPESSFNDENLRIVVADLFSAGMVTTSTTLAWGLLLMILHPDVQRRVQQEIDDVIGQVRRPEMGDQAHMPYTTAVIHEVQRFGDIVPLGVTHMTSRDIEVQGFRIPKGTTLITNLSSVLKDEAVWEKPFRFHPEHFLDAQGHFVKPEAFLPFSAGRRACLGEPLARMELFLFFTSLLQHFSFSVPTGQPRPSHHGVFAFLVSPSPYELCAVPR
# Chain of Melanin-concentrating hormone receptor 1 (Q99705 whole entry): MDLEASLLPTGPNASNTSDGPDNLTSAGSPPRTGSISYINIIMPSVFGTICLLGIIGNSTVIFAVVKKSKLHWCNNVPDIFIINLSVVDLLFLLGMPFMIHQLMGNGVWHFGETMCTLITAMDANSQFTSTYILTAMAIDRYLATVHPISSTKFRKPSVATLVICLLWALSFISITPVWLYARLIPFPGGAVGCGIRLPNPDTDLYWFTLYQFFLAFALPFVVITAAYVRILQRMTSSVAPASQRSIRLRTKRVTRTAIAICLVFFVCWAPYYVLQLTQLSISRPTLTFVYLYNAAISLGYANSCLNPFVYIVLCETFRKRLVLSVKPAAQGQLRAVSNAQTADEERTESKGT
Structure (SMILES),AC50 (HeLa),IC50 [1],IC50 [2],AC50 (Cytochrome P450 2D6)
O=C(/C=C/c1ccco1)Nc1ccccc1C(=O)Nc1cccc(C(=O)O)c1,180 µM (active),,,
COc1ccc(OC)c(NS(=O)(=O)c2c(C(=O)N3CCCCCC3)c(C)n(C)c2C)c1,,> 43.8 µM (not active),> 43.8 µM (not active),
N=c1c(C(=O)NCCc2ccccc2)cc2c(=O)n3ccccc3nc2n1CC1CCCO1 (configuration not stated),,158 µM (not active),> 43.8 µM (not active),
C=C(C)C(O)/C=C/c1ccc(Br)cc1 (configuration not stated),,,,3.16 µM (inconclusive)
COC(=O)C1C(C)OC(=O)NC1c1ccccc1 (configuration not stated),,,,3.16 µM (inconclusive)
